Test results from PMC5978884, “Dissection of the antimicrobial and hemolytic activity of Cap18: Generation of Cap18 derivatives with enhanced specificity” (PLoS ONE, 2018).
Where no end group is shown, it is not given here.

Columns and labels:
Format in all cases: cell-based
[1] = tested on: Salmonella enterica serovar Typhimurium LT2; test: microbe, parasite or virus in culture; settings: LT2
Procedure: (§1) All strains were grown in Mueller-Hinton-II medium, except L. monocytogenes which was grown in BHI medium and L. lactis which was grown in MRS medium. Incubation took place aerobically at 37°C, except for Y. ruckeri and A. salmonicida, which were grown aerobically at RT (20 °C), and L. lactis grown aerobically at 30°C. All plates were incubated for 16–21 hours.
(§2) The minimum inhibitory concentrations (MICs) of the AMPs were measured in 96-well microtiter plates according the Clinical and Laboratory Standards Institute (CLSI, formerly National Committee for Clinical Laboratory Standards [NCCLS]). Briefly, liquid Mueller-Hinton-II medium containing increasing concentrations of AMPs is inoculated with a defined number of cells (approx. 10^5 CFUs/ml) in 96-well microtiter plates (polypropylene), whereas each plate also includes a positive growth control and a negative control (sterile control). The range of peptide concentrations analyzed was 0.125–64 μg/ml for the high purity peptides and 0.06–32 μg/ml for peptides of the variant library. After incubation, the MIC is determined by the lowest concentration showing no visible growth. All plates were incubated for 16–20 hours. The MIC of the reference antibiotics was determined by the use of Sensititre panels (Trek Diagnostic Systems Ltd, East Grinstead, UK).

[2] = tested on: Yersinia ruckeri 392/2003; test: microbe, parasite or virus in culture
Procedure: as §1, §2

[3] = tested on: Aeromonas salmonicida ATCC33658; test: microbe, parasite or virus in culture; settings: ATCC33658
Procedure: as §1, §2

[4] = tested on: Pseudomonas aeruginosa ATCC27853
Procedure: as §1, §2

[5] = tested on: Listeria monocytogenes N22-2
Procedure: as §1, §2

[6] = tested on: Lactococcus lactis IL1403
Procedure: as §1, §2

[7] = tested on: Escherichia coli ATCC25922
Procedure: as §1, §2

[8] = tested on: Enterococcus faecalis ATCC29212
Procedure: as §1, §2

Sequence: GLRKRLRKFRNKIKEMLKKIGQKIQGLLPKLAPRTDY [Peptide 14]
- MIC S. Typhimurium [1]: 4 µg/mL
- MIC S. Typhimurium LT2 [1]: 16 µg/mL
- MIC Y. ruckeri [2]: 4 µg/mL
- MIC Y. ruckeri 392/2003 [2]: 8 to 16 µg/mL
- MIC A. salmonicida [3]: 4 µg/mL
- MIC A. salmonicida ATCC33658 [3]: 8 to 16 µg/mL
- MIC P. aeruginosa ATCC27853 [4]: 16 to 32 µg/mL
- MIC L. monocytogenes N22-2 [5]: 16 µg/mL
- MIC L. lactis IL1403 [6]: ≥64 µg/mL
- MIC E. coli ATCC25922 [7]: 16 µg/mL
- MIC E. faecalis ATCC29212 [8]: 32 µg/mL

Sequence: GLRKRLRKFRNKIKEKLKKIGQKIQTLLPKLAPRTDY [Peptide 30]
- MIC S. Typhimurium LT2 [1]: 4 to 8 µg/mL
- MIC Y. ruckeri 392/2003 [2]: 2 to 4 µg/mL
- MIC A. salmonicida ATCC33658 [3]: 4 µg/mL
- MIC P. aeruginosa ATCC27853 [4]: 8 µg/mL
- MIC L. monocytogenes N22-2 [5]: 4 µg/mL
- MIC L. lactis IL1403 [6]: 2 µg/mL
- MIC E. coli ATCC25922 [7]: 4 to 8 µg/mL
- MIC E. faecalis ATCC29212 [8]: 8 µg/mL

Sequence: GLRKRLRKFRNKIKEFLKKIGQKIQGLLPKLAPRTDY [Peptide 11]
- MIC S. Typhimurium [1]: 8 µg/mL
- MIC S. Typhimurium LT2 [1]: 16 µg/mL
- MIC Y. ruckeri [2]: 4 µg/mL
- MIC Y. ruckeri 392/2003 [2]: 16 to 32 µg/mL
- MIC A. salmonicida [3]: 4 µg/mL
- MIC A. salmonicida ATCC33658 [3]: 16 to 32 µg/mL
- MIC P. aeruginosa ATCC27853 [4]: 32 µg/mL
- MIC L. monocytogenes N22-2 [5]: 16 µg/mL
- MIC L. lactis IL1403 [6]: ≥64 µg/mL
- MIC E. coli ATCC25922 [7]: 16 µg/mL
- MIC E. faecalis ATCC29212 [8]: 16 µg/mL

Sequence: GLRKRLRKFRNKIKEKLKKNGQKIQGLLPKLAPRTDY [Peptide 22]
- MIC S. Typhimurium [1]: 4 µg/mL
- MIC S. Typhimurium LT2 [1]: 8 to 16 µg/mL
- MIC Y. ruckeri [2]: 16 µg/mL
- MIC Y. ruckeri 392/2003 [2]: ≥64 µg/mL
- MIC A. salmonicida [3]: 4 µg/mL
- MIC A. salmonicida ATCC33658 [3]: 16 µg/mL
- MIC P. aeruginosa ATCC27853 [4]: 8 to 16 µg/mL
- MIC L. monocytogenes N22-2 [5]: 16 to 32 µg/mL
- MIC L. lactis IL1403 [6]: ≥64 µg/mL
- MIC E. coli ATCC25922 [7]: ≥64 µg/mL
- MIC E. faecalis ATCC29212 [8]: ≥64 µg/mL

Sequence: GLRKRLRKFRNKIKEKLKKILQKIQGLLPKLAPRTDY [Peptide 24]
- MIC S. Typhimurium [1]: 8 µg/mL
- MIC S. Typhimurium LT2 [1]: 16 µg/mL
- MIC Y. ruckeri [2]: 4 µg/mL
- MIC Y. ruckeri 392/2003 [2]: 16 µg/mL
- MIC A. salmonicida [3]: 4 µg/mL
- MIC A. salmonicida ATCC33658 [3]: 16 µg/mL
- MIC P. aeruginosa ATCC27853 [4]: 16 µg/mL
- MIC L. monocytogenes N22-2 [5]: 16 µg/mL
- MIC L. lactis IL1403 [6]: ≥64 µg/mL
- MIC E. coli ATCC25922 [7]: 16 µg/mL
- MIC E. faecalis ATCC29212 [8]: 16 µg/mL

Sequence: GLRKRLRKFRNKQKEKLKKIGQKIQGLLPKLAPRTDY [Peptide 7]
- MIC S. Typhimurium [1]: 4 µg/mL
- MIC S. Typhimurium LT2 [1]: 4 to 8 µg/mL
- MIC Y. ruckeri 392/2003 [2]: 8 µg/mL
- MIC A. salmonicida [3]: 4 µg/mL
- MIC A. salmonicida ATCC33658 [3]: 8 µg/mL
- MIC P. aeruginosa ATCC27853 [4]: 8 µg/mL
- MIC L. monocytogenes N22-2 [5]: 16 µg/mL
- MIC L. lactis IL1403 [6]: ≥64 µg/mL
- MIC E. coli ATCC25922 [7]: 16 to 32 µg/mL
- MIC E. faecalis ATCC29212 [8]: 32 µg/mL

Sequence: GLRKRPRKFRNKIKEKLKKIGQKIQGLLPKLAPRTDY [Peptide 1]
- MIC S. Typhimurium [1]: 4 µg/mL
- MIC S. Typhimurium LT2 [1]: 8 µg/mL
- MIC Y. ruckeri 392/2003 [2]: 64 µg/mL
- MIC A. salmonicida [3]: 8 µg/mL
- MIC A. salmonicida ATCC33658 [3]: 8 to 16 µg/mL
- MIC P. aeruginosa ATCC27853 [4]: ≥64 µg/mL
- MIC L. monocytogenes N22-2 [5]: 32 µg/mL
- MIC L. lactis [6]: 8 µg/mL
- MIC L. lactis IL1403 [6]: ≥64 µg/mL
- MIC E. coli ATCC25922 [7]: 8 µg/mL
- MIC E. faecalis ATCC29212 [8]: 32 µg/mL

Sequence: GLRKRLRKFRNKIKEKLKKIGQKSQGLLPKLAPRTDY [Peptide 29]
- MIC S. Typhimurium [1]: 4 µg/mL
- MIC S. Typhimurium LT2 [1]: 8 µg/mL
- MIC Y. ruckeri [2]: 16 µg/mL
- MIC Y. ruckeri 392/2003 [2]: 16 µg/mL
- MIC A. salmonicida [3]: 8 µg/mL
- MIC A. salmonicida ATCC33658 [3]: 8 µg/mL
- MIC P. aeruginosa ATCC27853 [4]: 8 to 16 µg/mL
- MIC L. monocytogenes N22-2 [5]: 16 to 32 µg/mL
- MIC L. lactis IL1403 [6]: 32 µg/mL
- MIC E. coli ATCC25922 [7]: 32 to 64 µg/mL
- MIC E. faecalis ATCC29212 [8]: ≥64 µg/mL

Sequence: GLRKRLRKFRNKIKELLKKIGQKIQGLLPKLAPRTDY [Peptide 13]
- MIC S. Typhimurium [1]: 4 µg/mL
- MIC S. Typhimurium LT2 [1]: 16 µg/mL
- MIC Y. ruckeri [2]: 4 µg/mL
- MIC Y. ruckeri 392/2003 [2]: 16 µg/mL
- MIC A. salmonicida [3]: 4 µg/mL
- MIC A. salmonicida ATCC33658 [3]: 16 µg/mL
- MIC P. aeruginosa ATCC27853 [4]: 16 to 32 µg/mL
- MIC L. monocytogenes N22-2 [5]: 8 to 16 µg/mL
- MIC L. lactis IL1403 [6]: ≥64 µg/mL
- MIC E. coli ATCC25922 [7]: 16 µg/mL
- MIC E. faecalis ATCC29212 [8]: 16 µg/mL

Sequence: GLRKRLRKFRNKIKEKLKKHGQKIQGLLPKLAPRTDY [Peptide 21]
- MIC S. Typhimurium [1]: 2 µg/mL
- MIC S. Typhimurium LT2 [1]: 8 µg/mL
- MIC Y. ruckeri [2]: 8 µg/mL
- MIC Y. ruckeri 392/2003 [2]: 16 µg/mL
- MIC A. salmonicida [3]: 2 µg/mL
- MIC A. salmonicida ATCC33658 [3]: 4 µg/mL
- MIC P. aeruginosa ATCC27853 [4]: 8 µg/mL
- MIC L. monocytogenes N22-2 [5]: 16 µg/mL
- MIC L. lactis IL1403 [6]: 32 µg/mL
- MIC E. coli ATCC25922 [7]: 32 µg/mL
- MIC E. faecalis ATCC29212 [8]: ≥64 µg/mL

Sequence: GLRKRLRKFRNKFKEKLKKIGQKIQGLLPKLAPRTDY [Peptide 4]
- MIC S. Typhimurium LT2 [1]: 4 µg/mL
- MIC Y. ruckeri 392/2003 [2]: 2 µg/mL
- MIC A. salmonicida ATCC33658 [3]: 4 µg/mL
- MIC P. aeruginosa ATCC27853 [4]: 4 to 8 µg/mL
- MIC L. monocytogenes N22-2 [5]: 4 µg/mL
- MIC L. lactis IL1403 [6]: 2 µg/mL
- MIC E. coli ATCC25922 [7]: 4 to 8 µg/mL
- MIC E. faecalis ATCC29212 [8]: 8 to 16 µg/mL

Sequence: GLRKRLRKFRNKIKEKLKKIGQKCQGLLPKLAPRTDY [Peptide 25]
- MIC S. Typhimurium [1]: 4 µg/mL
- MIC S. Typhimurium LT2 [1]: 8 to 16 µg/mL
- MIC Y. ruckeri [2]: 4 µg/mL
- MIC Y. ruckeri 392/2003 [2]: 16 µg/mL
- MIC A. salmonicida [3]: 4 µg/mL
- MIC A. salmonicida ATCC33658 [3]: 4 to 8 µg/mL
- MIC P. aeruginosa ATCC27853 [4]: 16 µg/mL
- MIC L. monocytogenes N22-2 [5]: 16 µg/mL
- MIC L. lactis IL1403 [6]: ≥64 µg/mL
- MIC E. coli ATCC25922 [7]: 16 µg/mL
- MIC E. faecalis ATCC29212 [8]: 64 µg/mL

Sequence: GLRKRLRKFRNKIKEYLKKIGQKIQGLLPKLAPRTDY [Peptide 15]
- MIC S. Typhimurium [1]: 8 µg/mL
- MIC S. Typhimurium LT2 [1]: 16 µg/mL
- MIC Y. ruckeri [2]: 8 µg/mL
- MIC Y. ruckeri 392/2003 [2]: 8 to 16 µg/mL
- MIC A. salmonicida [3]: 4 µg/mL
- MIC A. salmonicida ATCC33658 [3]: 16 µg/mL
- MIC P. aeruginosa ATCC27853 [4]: 16 µg/mL
- MIC L. monocytogenes N22-2 [5]: 8 to 16 µg/mL
- MIC L. lactis IL1403 [6]: ≥64 µg/mL
- MIC E. coli ATCC25922 [7]: 16 µg/mL
- MIC E. faecalis ATCC29212 [8]: 16 µg/mL

Sequence: GLRKRLRKFRNKIKEILKKIGQKIQGLLPKLAPRTDY [Peptide 12]
- MIC S. Typhimurium [1]: 4 µg/mL
- MIC S. Typhimurium LT2 [1]: 16 µg/mL
- MIC Y. ruckeri [2]: 4 µg/mL
- MIC Y. ruckeri 392/2003 [2]: 16 µg/mL
- MIC A. salmonicida [3]: 4 µg/mL
- MIC A. salmonicida ATCC33658 [3]: 8 to 16 µg/mL
- MIC P. aeruginosa ATCC27853 [4]: 16 µg/mL
- MIC L. monocytogenes N22-2 [5]: 8 to 16 µg/mL
- MIC L. lactis IL1403 [6]: ≥64 µg/mL
- MIC E. coli ATCC25922 [7]: 16 µg/mL
- MIC E. faecalis ATCC29212 [8]: 16 µg/mL
